Common to all, as to assay: Kinase panel
What all share (format): biochemical

One assay concerns the target T1, MSK2(h) (Homo sapiens, UniProt O75676).
T1 construct: purchased Millipore KinaseProfiler

In a further assay the target is T2, GCK(h) (Homo sapiens, UniProt Q12851).
T2 construct: purchased Millipore KinaseProfiler
T2 sequence (Q12851 1-820): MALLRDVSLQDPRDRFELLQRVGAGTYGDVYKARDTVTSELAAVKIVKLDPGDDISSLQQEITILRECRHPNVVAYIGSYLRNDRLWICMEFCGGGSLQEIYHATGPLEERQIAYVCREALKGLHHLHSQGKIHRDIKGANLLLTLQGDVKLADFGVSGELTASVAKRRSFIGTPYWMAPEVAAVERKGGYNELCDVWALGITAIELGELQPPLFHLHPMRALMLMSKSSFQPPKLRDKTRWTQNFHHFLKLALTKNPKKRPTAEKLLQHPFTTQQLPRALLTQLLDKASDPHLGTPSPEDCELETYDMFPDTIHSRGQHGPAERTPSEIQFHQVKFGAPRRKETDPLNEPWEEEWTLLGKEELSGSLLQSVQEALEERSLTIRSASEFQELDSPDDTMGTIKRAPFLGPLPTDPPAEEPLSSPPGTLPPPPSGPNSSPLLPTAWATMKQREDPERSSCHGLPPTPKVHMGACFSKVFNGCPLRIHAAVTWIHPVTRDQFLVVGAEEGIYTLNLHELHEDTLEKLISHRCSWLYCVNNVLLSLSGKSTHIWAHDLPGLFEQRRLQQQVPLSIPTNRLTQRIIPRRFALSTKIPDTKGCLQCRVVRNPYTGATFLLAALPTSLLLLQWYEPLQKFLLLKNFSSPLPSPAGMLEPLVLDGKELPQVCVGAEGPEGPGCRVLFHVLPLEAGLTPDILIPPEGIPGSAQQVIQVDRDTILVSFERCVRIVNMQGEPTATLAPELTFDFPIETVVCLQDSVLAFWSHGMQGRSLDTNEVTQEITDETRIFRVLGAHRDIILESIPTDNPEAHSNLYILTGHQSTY

For the next assay, the target named is T3, Syk(h) (Homo sapiens, UniProt P43405).
T3 construct: purchased Millipore KinaseProfiler

A further assay has as its target T4, RIPK2(h) (Homo sapiens, UniProt O43353).
T4 construct: purchased Millipore KinaseProfiler

Another assay addresses T5, NEK2(h) (Homo sapiens, UniProt P51955).
T5 construct: purchased Millipore KinaseProfiler
T5 sequence (P51955 1-445): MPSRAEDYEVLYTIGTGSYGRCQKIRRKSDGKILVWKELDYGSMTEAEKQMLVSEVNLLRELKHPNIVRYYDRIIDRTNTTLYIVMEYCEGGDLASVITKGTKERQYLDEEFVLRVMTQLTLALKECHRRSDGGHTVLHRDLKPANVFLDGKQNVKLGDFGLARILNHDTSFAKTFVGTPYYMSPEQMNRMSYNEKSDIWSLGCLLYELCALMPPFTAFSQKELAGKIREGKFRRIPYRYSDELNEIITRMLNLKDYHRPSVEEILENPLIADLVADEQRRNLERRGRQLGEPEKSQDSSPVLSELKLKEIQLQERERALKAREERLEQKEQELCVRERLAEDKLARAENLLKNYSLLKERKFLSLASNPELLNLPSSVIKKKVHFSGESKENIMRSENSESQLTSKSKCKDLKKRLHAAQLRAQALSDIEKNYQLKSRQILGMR

The next assay concerns the target T6, PKG1α(h) (Homo sapiens, UniProt Q13976).
T6 construct: purchased Millipore KinaseProfiler
T6 sequence (Q13976 1-671): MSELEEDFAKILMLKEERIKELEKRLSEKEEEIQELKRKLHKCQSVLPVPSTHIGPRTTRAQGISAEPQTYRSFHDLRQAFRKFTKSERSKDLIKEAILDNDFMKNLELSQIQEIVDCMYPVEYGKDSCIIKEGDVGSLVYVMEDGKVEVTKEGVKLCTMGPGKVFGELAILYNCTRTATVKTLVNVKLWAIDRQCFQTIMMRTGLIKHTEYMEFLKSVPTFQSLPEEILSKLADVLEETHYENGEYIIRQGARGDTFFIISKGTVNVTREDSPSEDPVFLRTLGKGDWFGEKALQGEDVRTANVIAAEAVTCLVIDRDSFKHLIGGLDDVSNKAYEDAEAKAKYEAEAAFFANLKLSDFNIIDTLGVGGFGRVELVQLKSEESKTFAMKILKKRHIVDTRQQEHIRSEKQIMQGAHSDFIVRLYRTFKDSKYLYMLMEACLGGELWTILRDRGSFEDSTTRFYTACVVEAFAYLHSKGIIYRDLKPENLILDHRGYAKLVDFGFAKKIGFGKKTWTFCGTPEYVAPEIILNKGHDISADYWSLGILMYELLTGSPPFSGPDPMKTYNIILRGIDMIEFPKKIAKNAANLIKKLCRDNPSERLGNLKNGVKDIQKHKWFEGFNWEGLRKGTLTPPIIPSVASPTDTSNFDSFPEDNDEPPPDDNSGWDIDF

For another assay, the target named is T7, CaMKIδ(h) (Homo sapiens, UniProt Q8IU85).
T7 construct: purchased Millipore KinaseProfiler
T7 sequence (Q8IU85 whole entry): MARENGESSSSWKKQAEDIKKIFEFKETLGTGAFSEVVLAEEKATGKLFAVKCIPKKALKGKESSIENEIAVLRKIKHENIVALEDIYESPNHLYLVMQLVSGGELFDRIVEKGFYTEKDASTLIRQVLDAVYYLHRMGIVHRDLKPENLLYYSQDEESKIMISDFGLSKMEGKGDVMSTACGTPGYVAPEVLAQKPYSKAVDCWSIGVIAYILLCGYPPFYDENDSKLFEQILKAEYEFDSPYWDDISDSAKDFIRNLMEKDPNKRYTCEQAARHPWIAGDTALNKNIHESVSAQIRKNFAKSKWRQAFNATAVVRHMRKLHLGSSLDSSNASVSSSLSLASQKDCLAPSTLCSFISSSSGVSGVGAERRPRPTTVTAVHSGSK

The target of a further assay is T8, CHK2(h) (Homo sapiens, UniProt O96017).
T8 construct: purchased Millipore KinaseProfiler
T8 sequence (O96017 whole entry): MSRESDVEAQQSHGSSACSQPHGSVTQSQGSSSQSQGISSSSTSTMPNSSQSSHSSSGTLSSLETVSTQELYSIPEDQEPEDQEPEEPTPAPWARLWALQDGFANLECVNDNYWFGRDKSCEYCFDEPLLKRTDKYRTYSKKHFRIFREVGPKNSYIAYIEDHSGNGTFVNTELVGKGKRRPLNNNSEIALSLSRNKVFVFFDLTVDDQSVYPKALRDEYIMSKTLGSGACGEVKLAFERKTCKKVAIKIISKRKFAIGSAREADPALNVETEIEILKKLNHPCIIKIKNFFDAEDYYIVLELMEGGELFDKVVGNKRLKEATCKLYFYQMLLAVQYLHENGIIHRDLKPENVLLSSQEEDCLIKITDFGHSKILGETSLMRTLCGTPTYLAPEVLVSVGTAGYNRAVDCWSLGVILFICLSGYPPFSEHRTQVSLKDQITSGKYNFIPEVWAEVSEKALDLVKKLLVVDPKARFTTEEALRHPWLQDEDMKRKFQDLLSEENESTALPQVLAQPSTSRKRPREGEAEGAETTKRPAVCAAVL

A further assay deals with T9, MARK1(h) (Homo sapiens, UniProt Q9P0L2).
T9 construct: purchased Millipore KinaseProfiler
T9 sequence (Q9P0L2 whole entry): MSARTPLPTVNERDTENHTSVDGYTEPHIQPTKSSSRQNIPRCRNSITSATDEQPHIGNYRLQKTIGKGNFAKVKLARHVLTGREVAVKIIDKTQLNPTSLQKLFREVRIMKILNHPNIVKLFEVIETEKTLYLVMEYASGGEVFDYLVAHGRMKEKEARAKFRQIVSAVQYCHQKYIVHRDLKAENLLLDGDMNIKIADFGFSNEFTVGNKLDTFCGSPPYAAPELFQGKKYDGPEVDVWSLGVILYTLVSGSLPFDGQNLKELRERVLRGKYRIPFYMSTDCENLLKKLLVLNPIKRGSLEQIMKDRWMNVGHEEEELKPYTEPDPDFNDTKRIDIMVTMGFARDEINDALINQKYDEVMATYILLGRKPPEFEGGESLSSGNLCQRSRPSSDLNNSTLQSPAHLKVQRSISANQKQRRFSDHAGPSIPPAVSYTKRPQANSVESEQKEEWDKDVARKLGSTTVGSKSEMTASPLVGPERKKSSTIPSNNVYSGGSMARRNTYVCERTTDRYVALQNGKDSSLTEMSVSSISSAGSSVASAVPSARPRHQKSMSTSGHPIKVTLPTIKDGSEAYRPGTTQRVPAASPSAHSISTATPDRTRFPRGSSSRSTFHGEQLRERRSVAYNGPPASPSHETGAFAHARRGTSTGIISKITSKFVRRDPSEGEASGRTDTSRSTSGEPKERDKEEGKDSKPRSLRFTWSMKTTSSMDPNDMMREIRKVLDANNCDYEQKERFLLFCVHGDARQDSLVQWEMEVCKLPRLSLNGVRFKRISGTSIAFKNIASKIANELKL

The next assay addresses T10, cKit(V654A)(h) (Homo sapiens, UniProt P10721, V654A).
T10 construct: purchased Millipore KinaseProfiler

The text below walks through data of publication PMC4076210, “Discovery of Novel AKT Inhibitors with Enhanced Anti-Tumor Effects in Combination with the MEK Inhibitor” (PLoS ONE, 2014).

Where two headings read alike, the source gives them in different places.

T1 sequence (O75676 whole entry): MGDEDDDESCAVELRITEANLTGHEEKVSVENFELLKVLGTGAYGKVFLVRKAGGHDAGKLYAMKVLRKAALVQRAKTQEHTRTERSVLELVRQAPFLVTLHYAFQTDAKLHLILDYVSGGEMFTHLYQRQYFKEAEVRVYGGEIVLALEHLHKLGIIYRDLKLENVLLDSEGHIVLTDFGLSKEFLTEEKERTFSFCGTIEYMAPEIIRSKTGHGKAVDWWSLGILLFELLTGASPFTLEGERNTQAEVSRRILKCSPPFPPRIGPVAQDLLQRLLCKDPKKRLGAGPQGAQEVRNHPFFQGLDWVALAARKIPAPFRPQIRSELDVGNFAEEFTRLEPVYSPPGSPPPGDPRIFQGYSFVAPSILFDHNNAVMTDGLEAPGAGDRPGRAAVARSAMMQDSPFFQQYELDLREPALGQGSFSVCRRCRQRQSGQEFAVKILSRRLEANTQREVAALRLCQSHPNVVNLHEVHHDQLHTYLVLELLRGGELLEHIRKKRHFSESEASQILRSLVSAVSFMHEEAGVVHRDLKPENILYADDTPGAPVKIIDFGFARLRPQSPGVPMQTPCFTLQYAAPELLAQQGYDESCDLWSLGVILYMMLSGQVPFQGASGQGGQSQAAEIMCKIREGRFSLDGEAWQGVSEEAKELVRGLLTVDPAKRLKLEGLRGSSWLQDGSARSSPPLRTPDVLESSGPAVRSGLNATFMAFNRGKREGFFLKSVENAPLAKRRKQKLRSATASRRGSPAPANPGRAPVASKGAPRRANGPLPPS
T10 sequence (P10721 26-976 V654A): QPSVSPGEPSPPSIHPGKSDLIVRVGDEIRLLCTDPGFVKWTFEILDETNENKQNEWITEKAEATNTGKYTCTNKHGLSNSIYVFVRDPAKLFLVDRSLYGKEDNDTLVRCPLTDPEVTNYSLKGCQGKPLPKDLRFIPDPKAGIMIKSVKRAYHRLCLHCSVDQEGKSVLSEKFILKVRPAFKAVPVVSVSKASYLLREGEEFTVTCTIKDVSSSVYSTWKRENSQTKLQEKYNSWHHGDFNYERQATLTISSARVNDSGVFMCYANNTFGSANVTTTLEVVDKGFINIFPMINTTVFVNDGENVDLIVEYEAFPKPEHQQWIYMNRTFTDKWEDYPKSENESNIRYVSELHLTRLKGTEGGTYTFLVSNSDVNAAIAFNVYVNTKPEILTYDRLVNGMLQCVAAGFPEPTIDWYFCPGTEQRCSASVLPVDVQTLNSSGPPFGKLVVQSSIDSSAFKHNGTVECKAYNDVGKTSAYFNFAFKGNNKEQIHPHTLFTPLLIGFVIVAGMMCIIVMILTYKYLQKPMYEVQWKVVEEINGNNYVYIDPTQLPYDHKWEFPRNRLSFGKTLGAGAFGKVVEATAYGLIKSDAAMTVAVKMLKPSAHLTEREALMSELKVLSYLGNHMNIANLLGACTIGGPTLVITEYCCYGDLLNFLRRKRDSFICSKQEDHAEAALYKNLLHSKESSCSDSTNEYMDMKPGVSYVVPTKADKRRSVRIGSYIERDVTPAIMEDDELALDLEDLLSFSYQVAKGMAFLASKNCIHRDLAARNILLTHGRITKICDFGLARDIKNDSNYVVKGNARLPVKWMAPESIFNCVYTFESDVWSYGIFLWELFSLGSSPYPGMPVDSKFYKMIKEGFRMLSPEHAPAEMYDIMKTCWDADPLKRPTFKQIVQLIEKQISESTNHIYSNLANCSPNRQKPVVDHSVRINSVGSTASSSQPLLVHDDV
T4 sequence (O43353 whole entry): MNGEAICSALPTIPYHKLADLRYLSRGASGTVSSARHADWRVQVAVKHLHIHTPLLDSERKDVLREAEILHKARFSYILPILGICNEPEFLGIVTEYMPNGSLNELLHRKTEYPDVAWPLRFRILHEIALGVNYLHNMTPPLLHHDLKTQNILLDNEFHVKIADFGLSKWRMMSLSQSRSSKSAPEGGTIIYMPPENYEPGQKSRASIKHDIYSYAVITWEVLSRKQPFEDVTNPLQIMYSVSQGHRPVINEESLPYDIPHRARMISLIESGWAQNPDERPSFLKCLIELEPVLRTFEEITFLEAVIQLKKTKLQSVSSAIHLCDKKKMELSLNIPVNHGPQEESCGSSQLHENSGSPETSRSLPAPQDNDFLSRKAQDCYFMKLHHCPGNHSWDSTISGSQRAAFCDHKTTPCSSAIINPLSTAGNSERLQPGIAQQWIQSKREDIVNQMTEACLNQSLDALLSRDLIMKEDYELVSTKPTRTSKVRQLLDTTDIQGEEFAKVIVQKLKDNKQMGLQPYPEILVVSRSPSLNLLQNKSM

Take `Cn1ncc(Cl)c1-c1cc(C(=O)N[C@H](CN)Cc2cccc(F)c2)sc1Cl` [GSK2110183]: the inhibition – broadly, the change of the read-out against control, counted positive when it falls – at 0.5 µM against MSK2(h) was 85%; against GCK(h), -1%; at Syk(h) it was 3%; against RIPK2(h), -8%; against NEK2(h), -10%; against PKG1α(h), 99%. Also, the inhibition at 0.5 µM on CaMKIδ(h) is 18%; on CHK2(h), 39%; against MARK1(h), 26%; against cKit(V654A)(h) it was -9%. Besides, the inhibition at 10 µM was 97% on MSK2(h); 10% against GCK(h); 39% on Syk(h); -3% against RIPK2(h); -8% against NEK2(h); 99% at PKG1α(h). In addition, the inhibition at 10 µM is 78% against CaMKIδ(h), 97% at CHK2(h), 88% against MARK1(h) and -9% at cKit(V654A)(h).

`Cn1ncc(Cl)c1-c1cc(C(=O)N[C@H](CN)Cc2ccc(F)c(F)c2)oc1Cl` [GSK2141795]: the inhibition at 0.5 µM at MSK2(h) (0.5 µM, read-out: % Inhibition) was 98%; on GCK(h) (0.5 µM, read-out: % Inhibition), -13%; at Syk(h) (0.5 µM, read-out: % Inhibition) it was -18%; on RIPK2(h) (0.5 µM, read-out: % Inhibition), 3%; on NEK2(h) (0.5 µM, read-out: % Inhibition), -4%; on PKG1α(h) (0.5 µM, read-out: % Inhibition), 100%. Further, the inhibition at 0.5 µM at CaMKIδ(h) (0.5 µM, read-out: % Inhibition) is 16%; on CHK2(h) (0.5 µM, read-out: % Inhibition), 36%; at MARK1(h) (0.5 µM, read-out: % Inhibition) it was -11%; on cKit(V654A)(h) (0.5 µM, read-out: % Inhibition) it was -2%. The inhibition at 10 µM on MSK2(h) (10 µM, read-out: % Inhibition) amounted to 102%; on GCK(h) (10 µM, read-out: % Inhibition) it was 7%; at Syk(h) (10 µM, read-out: % Inhibition) it was 35%; on RIPK2(h) (10 µM, read-out: % Inhibition), 15%; on NEK2(h) (10 µM, read-out: % Inhibition) it was 2%; at PKG1α(h) (10 µM, read-out: % Inhibition), 99%. Besides, the inhibition at 10 µM on CaMKIδ(h) (10 µM, read-out: % Inhibition) is 84%; at CHK2(h) (10 µM, read-out: % Inhibition), 91%; at MARK1(h) (10 µM, read-out: % Inhibition), 53%; at cKit(V654A)(h) (10 µM, read-out: % Inhibition), -3%.
